Experimental data reported in patent US20050070510A1, “Substituted tetracycline compounds as synergistic antifungal agents” (Paratek Pharmaceuticals, Inc., priority 2001, published 2005).

test system: COS-1 cells; experiment: In vitro mammalian cytotoxicity assay (Resazurin)

| SMILES | In Vitro Cytotoxicity |
| --- | --- |
| CN(C)[C@@H]1C(O)=C(C(N)=O)C(=O)[C@@]2(C#N)C(O)=C3C(=O)c4c(O)c(C(C)(C)C)cc(I)c4C[C@@]3(N)C[C@@]12N [NR] | ** (toxicities less than 25 μg/mL are represented by **) |
| CN(C)[C@@H]1C(O)=C(C(N)=O)C(=O)[C@@]2(C#N)C(O)=C3C(=O)c4c(O)ccc(-c5ccccc5Cl)c4C[C@@]3(N)C[C@@]12N [GM] | ** (toxicities less than 25 μg/mL are represented by **) |
| COc1cccc(C#Cc2ccc(O)c3c2C[C@@]2(N)C[C@@]4(N)[C@H](N(C)C)C(O)=C(C(N)=O)C(=O)[C@@]4(C#N)C(O)=C2C3=O)c1 [GU] | ** (toxicities less than 25 μg/mL are represented by **) |
| CCNC(=O)Nc1cc(N(C)C)c2c(c1O)C(=O)C1=C(O)[C@]3(C#N)C(=O)C(C(N)=O)=C(O)[C@@H](N(C)C)[C@]3(N)C[C@]1(N)C2 [KJ] | ** (toxicities less than 25 μg/mL are represented by **) |
| CC(O)CCc1ccc(O)c2c1C[C@@]1(N)C[C@@]3(N)[C@H](N(C)C)C(O)=C(C(N)=O)C(=O)[C@@]3(C#N)C(O)=C1C2=O (stereo partly drawn) [IW] | * (toxicities greater than >25 μg/ml are represented by *) |
| CN(C)c1ccc(O)c2c1C[C@@]1(N)C[C@@]3(N)[C@H](N(C)C)C(O)=C(C(=O)NCNC(=O)CCl)C(=O)[C@@]3(C#N)C(O)=C1C2=O [KG] | ** (toxicities less than 25 μg/mL are represented by **) |
| CN(C)CCCc1ccc(O)c2c1C[C@@]1(N)C[C@@]3(N)[C@H](N(C)C)C(O)=C(C(=O)NC(C)(C)C)C(=O)[C@@]3(C#N)C(O)=C1C2=O [HH] | * (toxicities greater than >25 μg/ml are represented by *) |
| CN(C)[C@@H]1C(O)=C(C(N)=O)C(=O)[C@@]2(C#N)C(O)=C3C(=O)c4c(O)cccc4[C@H](N)[C@@]3(N)[C@H](OC(=O)C34CC5CC(CC(C5)C3)C4)[C@@]12N [CJ] | ** (toxicities less than 25 μg/mL are represented by **) |
| CN(C)[C@@H]1C(O)=C(C(N)=O)C(=O)[C@@]2(C#N)C(O)=C3C(=O)c4c(O)c(CN5C(=O)c6ccccc6C5=O)cc(-c5cccc([N+](=O)O)c5)c4C[C@@]3(N)C[C@@]12N [JQ] | ** (toxicities less than 25 μg/mL are represented by **) |
| COc1ccc(-c2ccc(O)c3c2C[C@@]2(N)C[C@@]4(N)[C@H](N(C)C)C(O)=C(C(N)=O)C(=O)[C@@]4(C#N)C(O)=C2C3=O)c(OC)c1OC [RT] | ** (toxicities less than 25 μg/mL are represented by **) |
| C=CCOC(=O)Nc1ccc(-c2ccc(O)c3c2C[C@@]2(N)C[C@@]4(N)[C@H](N(C)C)C(O)=C(C(N)=O)C(=O)[C@@]4(C#N)C(O)=C2C3=O)cc1 [OZ] | ** (toxicities less than 25 μg/mL are represented by **) |
| CN(C)[C@@H]1C(O)=C(C(N)=O)C(=O)[C@@]2(C#N)C(O)=C3C(=O)c4c(O)cccc4C[C@@]3(N)[C@H](NC(=O)CCN3CCOCC3)[C@@]12N [EZ] | ** (toxicities less than 25 μg/mL are represented by **) |
| CCOC(=O)CNCc1ccc(OC)c(-c2ccc(O)c3c2C[C@@]2(N)C[C@@]4(N)[C@H](N(C)C)C(O)=C(C(N)=O)C(=O)[C@@]4(C#N)C(O)=C2C3=O)c1 [NK] | * (toxicities greater than >25 μg/ml are represented by *) |
| CCCCOC(=O)Nc1cc(N(C)C)c2c(c1O)C(=O)C1=C(O)[C@]3(C#N)C(=O)C(C(N)=O)=C(O)[C@@H](N(C)C)[C@]3(N)C[C@]1(N)C2 [KI] | ** (toxicities less than 25 μg/mL are represented by **) |
| CN(C)c1cc(CNCC(C)(C)C)c(O)c2c1C[C@@]1(N)C[C@@]3(N)[C@H](N(C)C)C(O)=C(C(N)=O)C(=O)[C@@]3(C#N)C(O)=C1C2=O [TK] | * (toxicities greater than >25 μg/ml are represented by *) |
| COC(=O)c1ccc(-c2ccc(O)c3c2C[C@@]2(N)C[C@@]4(N)[C@H](N(C)C)C(O)=C(C(N)=O)C(=O)[C@@]4(C#N)C(O)=C2C3=O)cc1 [EF] | ** (toxicities less than 25 μg/mL are represented by **) |
| CN(C)[C@@H]1C(O)=C(C(N)=O)C(=O)[C@@]2(C#N)C(O)=C3C(=O)c4c(O)c(CN)cc(-c5ccc(I)cc5)c4C[C@@]3(N)C[C@@]12N [JT] | * (toxicities greater than >25 μg/ml are represented by *) |
| Cc1coc(NCc2cc(N(C)C)c3c(c2O)C(=O)C2=C(O)[C@]4(C#N)C(=O)C(C(N)=O)=C(O)[C@@H](N(C)C)[C@]4(N)C[C@]2(N)C3)n1 [TE] | * (toxicities greater than >25 μg/ml are represented by *) |
| CN(C)c1cc(C#CC2=CCCC2)c(O)c2c1C[C@@]1(N)C[C@@]3(N)[C@H](N(C)C)C(O)=C(C(N)=O)C(=O)[C@@]3(C#N)C(O)=C1C2=O [KN] | ** (toxicities less than 25 μg/mL are represented by **) |
| CN(C)[C@@H]1C(O)=C(C(N)=O)C(=O)[C@@]2(C#N)C(O)=C3C(=O)c4c(O)ccc(C#Cc5ccccc5F)c4C[C@@]3(N)C[C@@]12N [GS] | ** (toxicities less than 25 μg/mL are represented by **) |
| CC(C)NCc1ccc(-c2ccc(O)c3c2C[C@@]2(N)C[C@@]4(N)[C@H](N(C)C)C(O)=C(C(N)=O)C(=O)[C@@]4(C#N)C(O)=C2C3=O)cc1 [OT] | * (toxicities greater than >25 μg/ml are represented by *) |

| SMILES | In Vitro Cytotoxicity |
| --- | --- |
| COc1ccc(-c2ccc3c(c2O)C(=O)C2=C(O)[C@]4(C#N)C(=O)C(C(N)=O)=C(O)[C@@H](N(C)C)[C@]4(N)[C@@H](O)[C@]2(N)C3N)cc1 (stereo partly drawn) [AZ] | ** (toxicities less than 25 μg/mL are represented by **) |
| CN(C)[C@@H]1C(O)=C(C(N)=O)C(=O)[C@@]2(C#N)C(O)=C3C(=O)c4c(O)cccc4C(N)[C@@]3(N)[C@H](O)[C@@]12N (stereo partly drawn) [CZ] | ** (toxicities less than 25 μg/mL are represented by **) |
| COC(=O)C#Cc1cc(N(C)C)c2c(c1O)C(=O)C1=C(O)[C@]3(C#N)C(=O)C(C(N)=O)=C(O)[C@@H](N(C)C)[C@]3(N)C[C@]1(N)C2 [JI] | * (toxicities greater than >25 μg/ml are represented by *) |
| CN(C)c1cc(NC(=O)OCC(C)(C)C)c(O)c2c1C[C@@]1(N)C[C@@]3(N)[C@H](N(C)C)C(O)=C(C(N)=O)C(=O)[C@@]3(C#N)C(O)=C1C2=O [DG] | ** (toxicities less than 25 μg/mL are represented by **) |
| CN(C)[C@@H]1C(O)=C(C(N)=O)C(=O)[C@@]2(C#N)C(O)=C3C(=O)c4c(O)ccc(-c5ccc(CNCc6ccccc6)o5)c4C[C@@]3(N)C[C@@]12N [SS] | ** (toxicities less than 25 μg/mL are represented by **) |
| CN(C)[C@@H]1C(O)=C(C(N)=O)C(=O)[C@@]2(C#N)C(O)=C3C(=O)c4c(O)c(C(C)(C)C)cc(CCC(=O)c5cccnc5)c4C[C@@]3(N)C[C@@]12N [ID] | * (toxicities greater than >25 μg/ml are represented by *) |
| Cc1ccc(-c2ccc(O)c3c2C[C@@]2(N)C[C@@]4(N)[C@H](N(C)C)C(O)=C(C(N)=O)C(=O)[C@@]4(C#N)C(O)=C2C3=O)s1 [GJ] | ** (toxicities less than 25 μg/mL are represented by **) |
| CCCc1cccc(-c2ccc(O)c3c2C[C@@]2(N)C[C@@]4(N)[C@H](N(C)C)C(O)=C(C(N)=O)C(=O)[C@@]4(C#N)C(O)=C2C3=O)c1 [FY] | ** (toxicities less than 25 μg/mL are represented by **) |
| CN(C)c1cc(CNC(N)=O)c(O)c2c1C[C@@]1(N)C[C@@]3(N)[C@H](N(C)C)C(O)=C(C(N)=O)C(=O)[C@@]3(C#N)C(O)=C1C2=O [TD] | * (toxicities greater than >25 μg/ml are represented by *) |
| CN(C)[C@@H]1C(O)=C(C(N)=O)C(=O)[C@@]2(C#N)C(O)=C3C(=O)c4c(O)ccc(-c5ccc(NC(=O)C6CC6)cc5)c4C[C@@]3(N)C[C@@]12N [PB] | * (toxicities greater than >25 μg/ml are represented by *) |
| CN(C)[C@@H]1C(O)=C(C(N)=O)C(=O)[C@@]2(C#N)C(O)=C3C(=O)c4c(O)ccc(-c5ccc(NC(=O)CN)cc5)c4C[C@@]3(N)C[C@@]12N [VA] | ** (toxicities less than 25 μg/mL are represented by **) |
| CN(C)c1cc(C#Cc2ccc(N)cc2)c(O)c2c1C[C@@]1(N)C[C@@]3(N)[C@H](N(C)C)C(O)=C(C(N)=O)C(=O)[C@@]3(C#N)C(O)=C1C2=O [JG] | * (toxicities greater than >25 μg/ml are represented by *) |
| CC(C)CNC(=N)Nc1cc(N(C)C)c2c(c1O)C(=O)C1=C(O)[C@]3(C#N)C(=O)C(C(N)=O)=C(O)[C@@H](N(C)C)[C@]3(N)C[C@]1(N)C2 [MM] | * (toxicities greater than >25 μg/ml are represented by *) |
| CN(C)c1cc(CCCNS(C)(=O)=O)c(O)c2c1C[C@@]1(N)C[C@@]3(N)[C@H](N(C)C)C(O)=C(C(N)=O)C(=O)[C@@]3(C#N)C(O)=C1C2=O [JX] | * (toxicities greater than >25 μg/ml are represented by *) |
| CN(C)c1ccc(-c2cc([N+](=O)O)c(O)c3c2C[C@@]2(N)C[C@@]4(N)C(N(C)C)C(O)=C(C(N)=O)C(=O)[C@@]4(C#N)C(O)=C2C3=O)cc1 (stereo partly drawn) [RE] | ** (toxicities less than 25 μg/mL are represented by **) |
| CCC(=O)O[C@H]1[C@@]2(N)C(=C(O)[C@]3(C#N)C(=O)C(C(N)=O)=C(O)[C@@H](N(C)C)[C@]13N)C(=O)c1c(ccc(NC(=O)Nc3cccc4ccccc34)c1O)[C@@H]2N [BL] | * (toxicities greater than >25 μg/ml are represented by *) |
| COC(=O)CCC(=O)Nc1ccc(-c2ccc(O)c3c2C[C@@]2(N)C[C@@]4(N)[C@H](N(C)C)C(O)=C(C(N)=O)C(=O)[C@@]4(C#N)C(O)=C2C3=O)cc1 [UT] | ** (toxicities less than 25 μg/mL are represented by **) |
| CN(C)[C@@H]1C(O)=C(C(N)=O)C(=O)[C@@]2(C#N)C(O)=C3C(=O)c4c(O)ccc(-c5ccc6c(c5)OCO6)c4C[C@@]3(N)C[C@@]12N [EO] | ** (toxicities less than 25 μg/mL are represented by **) |
| COc1ccc2c(c1)cc1c3c(c(O)ccc32)C(=O)C2=C(O)[C@]3(C#N)C(=O)C(C(N)=O)=C(O)[C@@H](N(C)C)[C@]3(N)C[C@@]21N [OL] | ** (toxicities less than 25 μg/mL are represented by **) |
| CN(C)[C@@H]1C(O)=C(C(N)=O)C(=O)[C@@]2(C#N)C(O)=C3C(=O)c4c(O)ccc(-c5cc6ccccc6o5)c4C[C@@]3(N)C[C@@]12N [FW] | ** (toxicities less than 25 μg/mL are represented by **) |
| CN(C)c1cc(CNCc2cccn2C)c(O)c2c1C[C@@]1(N)C[C@@]3(N)[C@H](N(C)C)C(O)=C(C(N)=O)C(=O)[C@@]3(C#N)C(O)=C1C2=O [SK] | * (toxicities greater than >25 μg/ml are represented by *) |
